Reference: patent publication US11279707B2, “NEK inhibitors and methods of use” (DANA-FARBER CANCER INSTITUTE, INC., priority 2017, dated 2022)

Legend:
Assay type in all cases: biochemical
[1] = target: T1, DRAK1 (Homo sapiens, UniProt Q9UEE5); experiment: kinase inhibition, DRAK1
T1 sequence (Q9UEE5 1-414): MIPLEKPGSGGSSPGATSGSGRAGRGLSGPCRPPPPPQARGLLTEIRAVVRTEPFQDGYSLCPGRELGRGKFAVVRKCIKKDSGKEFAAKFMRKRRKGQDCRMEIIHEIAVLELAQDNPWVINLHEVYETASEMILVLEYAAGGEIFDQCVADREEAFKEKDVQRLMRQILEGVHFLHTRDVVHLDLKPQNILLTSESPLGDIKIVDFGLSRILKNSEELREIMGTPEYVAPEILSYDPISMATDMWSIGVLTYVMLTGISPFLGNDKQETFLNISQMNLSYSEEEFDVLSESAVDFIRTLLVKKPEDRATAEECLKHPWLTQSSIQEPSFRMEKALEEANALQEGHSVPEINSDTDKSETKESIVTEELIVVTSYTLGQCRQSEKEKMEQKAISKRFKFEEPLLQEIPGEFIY

[2] = target: RSK1 (Homo sapiens, UniProt Q15418); experiment: kinase inhibition, RSK1
[3] = target: T2, MERTK (Homo sapiens, UniProt Q12866); experiment: kinase inhibition, MERTK
T2 sequence (Q12866 21-999): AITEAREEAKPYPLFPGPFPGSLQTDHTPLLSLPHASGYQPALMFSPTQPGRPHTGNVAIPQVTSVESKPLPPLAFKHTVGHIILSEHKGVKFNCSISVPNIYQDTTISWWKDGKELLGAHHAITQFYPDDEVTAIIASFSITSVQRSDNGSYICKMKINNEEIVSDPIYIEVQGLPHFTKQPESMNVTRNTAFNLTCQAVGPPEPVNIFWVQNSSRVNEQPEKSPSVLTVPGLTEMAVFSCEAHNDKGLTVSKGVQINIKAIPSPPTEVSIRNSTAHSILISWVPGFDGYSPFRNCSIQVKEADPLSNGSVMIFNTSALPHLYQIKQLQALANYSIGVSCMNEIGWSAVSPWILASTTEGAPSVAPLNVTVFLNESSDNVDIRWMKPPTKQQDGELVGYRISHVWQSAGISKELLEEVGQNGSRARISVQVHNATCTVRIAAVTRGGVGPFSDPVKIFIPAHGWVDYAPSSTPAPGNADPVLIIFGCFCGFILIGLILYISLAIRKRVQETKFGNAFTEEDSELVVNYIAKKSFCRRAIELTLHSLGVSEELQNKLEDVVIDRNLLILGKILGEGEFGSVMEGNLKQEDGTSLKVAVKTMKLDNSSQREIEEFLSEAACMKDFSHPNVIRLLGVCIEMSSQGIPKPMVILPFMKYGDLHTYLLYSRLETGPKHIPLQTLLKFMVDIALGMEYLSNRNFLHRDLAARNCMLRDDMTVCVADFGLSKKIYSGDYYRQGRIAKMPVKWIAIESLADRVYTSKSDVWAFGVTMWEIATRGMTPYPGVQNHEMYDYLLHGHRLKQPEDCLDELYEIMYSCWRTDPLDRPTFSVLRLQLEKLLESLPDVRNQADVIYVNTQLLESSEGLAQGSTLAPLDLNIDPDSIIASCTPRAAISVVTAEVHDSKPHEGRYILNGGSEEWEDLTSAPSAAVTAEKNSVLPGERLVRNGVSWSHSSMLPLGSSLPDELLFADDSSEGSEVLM

[4] = target: NEK6 (Homo sapiens, UniProt Q9HC98); experiment: kinase inhibition, NEK6
[5] = target: T3, AXL (Homo sapiens, UniProt P30530); experiment: kinase inhibition, AXL
T3 sequence (P30530 26-894): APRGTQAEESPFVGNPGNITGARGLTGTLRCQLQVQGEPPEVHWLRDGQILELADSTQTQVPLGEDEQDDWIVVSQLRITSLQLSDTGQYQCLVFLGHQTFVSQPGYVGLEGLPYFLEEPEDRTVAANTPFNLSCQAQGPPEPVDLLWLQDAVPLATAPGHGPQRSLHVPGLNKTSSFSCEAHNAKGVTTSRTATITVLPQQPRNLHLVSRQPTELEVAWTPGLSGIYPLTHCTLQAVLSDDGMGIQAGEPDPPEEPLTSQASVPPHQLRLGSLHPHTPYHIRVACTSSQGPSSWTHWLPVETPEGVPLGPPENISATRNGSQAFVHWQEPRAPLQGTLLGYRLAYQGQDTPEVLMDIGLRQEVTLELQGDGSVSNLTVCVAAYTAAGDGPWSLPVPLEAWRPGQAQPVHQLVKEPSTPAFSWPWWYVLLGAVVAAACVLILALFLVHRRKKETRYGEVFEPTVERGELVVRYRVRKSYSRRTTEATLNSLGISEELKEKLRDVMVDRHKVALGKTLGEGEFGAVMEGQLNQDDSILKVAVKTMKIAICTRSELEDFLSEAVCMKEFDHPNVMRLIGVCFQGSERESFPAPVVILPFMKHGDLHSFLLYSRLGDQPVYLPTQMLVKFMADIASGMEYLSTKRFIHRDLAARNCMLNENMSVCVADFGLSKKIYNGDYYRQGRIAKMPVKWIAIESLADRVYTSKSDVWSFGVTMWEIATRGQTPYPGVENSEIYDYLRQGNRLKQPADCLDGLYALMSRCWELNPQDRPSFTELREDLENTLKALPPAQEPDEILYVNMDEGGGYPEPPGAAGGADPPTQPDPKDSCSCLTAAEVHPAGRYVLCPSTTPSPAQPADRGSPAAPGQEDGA

[6] = target: GRK4 (Homo sapiens, UniProt P32298); experiment: kinase inhibition, GRK4
GRK4, sequence (P32298 whole entry, species assumed): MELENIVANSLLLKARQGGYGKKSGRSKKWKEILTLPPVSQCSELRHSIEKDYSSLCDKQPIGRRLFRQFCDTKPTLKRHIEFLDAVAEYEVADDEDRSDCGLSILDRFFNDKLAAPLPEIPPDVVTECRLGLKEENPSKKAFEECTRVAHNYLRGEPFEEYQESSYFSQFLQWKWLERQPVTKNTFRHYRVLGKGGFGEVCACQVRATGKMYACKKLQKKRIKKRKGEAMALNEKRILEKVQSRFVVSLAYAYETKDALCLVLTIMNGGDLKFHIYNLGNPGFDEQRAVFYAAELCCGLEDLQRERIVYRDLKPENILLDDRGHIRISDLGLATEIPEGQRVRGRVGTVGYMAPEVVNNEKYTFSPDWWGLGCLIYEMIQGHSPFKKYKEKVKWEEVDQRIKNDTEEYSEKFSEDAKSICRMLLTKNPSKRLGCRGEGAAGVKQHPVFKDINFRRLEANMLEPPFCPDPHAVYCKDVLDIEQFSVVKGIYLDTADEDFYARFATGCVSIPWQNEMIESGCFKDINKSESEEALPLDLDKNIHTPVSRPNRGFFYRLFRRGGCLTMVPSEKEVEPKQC

NEK6, sequence (Q9HC98 whole entry, species assumed): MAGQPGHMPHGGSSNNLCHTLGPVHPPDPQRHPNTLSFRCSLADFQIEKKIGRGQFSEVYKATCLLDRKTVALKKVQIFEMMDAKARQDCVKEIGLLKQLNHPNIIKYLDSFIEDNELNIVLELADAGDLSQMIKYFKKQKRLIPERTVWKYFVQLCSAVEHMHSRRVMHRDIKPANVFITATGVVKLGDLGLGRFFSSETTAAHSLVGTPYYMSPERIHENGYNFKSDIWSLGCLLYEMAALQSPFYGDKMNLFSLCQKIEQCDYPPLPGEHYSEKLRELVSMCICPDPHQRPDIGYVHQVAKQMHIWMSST
RSK1, sequence (Q15418 whole entry, species assumed): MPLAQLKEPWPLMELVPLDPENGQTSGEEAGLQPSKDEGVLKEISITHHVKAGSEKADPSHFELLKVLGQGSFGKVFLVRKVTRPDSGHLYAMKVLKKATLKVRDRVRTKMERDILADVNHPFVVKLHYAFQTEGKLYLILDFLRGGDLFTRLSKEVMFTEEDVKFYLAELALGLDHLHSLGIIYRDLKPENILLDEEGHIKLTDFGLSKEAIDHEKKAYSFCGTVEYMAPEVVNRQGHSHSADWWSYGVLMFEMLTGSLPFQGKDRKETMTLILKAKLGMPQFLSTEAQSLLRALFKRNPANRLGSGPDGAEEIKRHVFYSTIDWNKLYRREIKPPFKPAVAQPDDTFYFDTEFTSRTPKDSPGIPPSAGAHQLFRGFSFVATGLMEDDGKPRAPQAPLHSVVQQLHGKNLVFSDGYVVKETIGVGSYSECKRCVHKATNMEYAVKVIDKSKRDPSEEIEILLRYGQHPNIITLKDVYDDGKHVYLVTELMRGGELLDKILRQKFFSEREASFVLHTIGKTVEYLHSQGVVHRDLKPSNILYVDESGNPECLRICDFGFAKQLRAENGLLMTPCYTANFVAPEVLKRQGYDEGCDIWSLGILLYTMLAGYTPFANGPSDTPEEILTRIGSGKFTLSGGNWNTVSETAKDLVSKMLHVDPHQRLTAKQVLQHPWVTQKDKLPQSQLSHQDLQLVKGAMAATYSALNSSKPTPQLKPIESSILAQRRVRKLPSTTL

| IC50 [1] [nM] | IC50 [2] [nM] | IC50 [3] [nM] | IC50 [4] [nM] | IC50 [5] [nM] | IC50 [6] [nM] | SMILES |
| --- | --- | --- | --- | --- | --- | --- |
| 250 to 1000 | 50 to 250 | ≥ 5000 | 250 to 1000 | 1000 to 5000 | – | COc1cc(C2CCN(C)CC2)ccc1Nc1ncc2c(n1)n1c(cc3ccccc31)c(=O)n2C [Compound I-6] |
| 250 to 1000 | 1000 to 5000 | 1000 to 5000 | ≥ 5000 | 1000 to 5000 | – | CN1CCN(c2ccc(Nc3ncc4c(n3)n3c(cc5ccccc53)c(=O)n4C)cc2C(F)(F)F)CC1 [Compound I-5] |
| 1000 to 5000 | 250 to 1000 | ≥ 5000 | 1000 to 5000 | ≥ 5000 | – | COc1cc(C(=O)N2CCC(N3CCN(C)CC3)CC2)ccc1Nc1ncc2c(n1)n1c(cc3ccccc31)c(=O)n2C [Compound I-4] |
| 50 to 250 | 250 to 1000 | ≥ 5000 | 50 to 250 | ≥ 5000 | – | COc1cc(N2CCN(C)CC2)ccc1Nc1ncc2c(n1)n1c(cc3ccccc31)c(=O)n2C [Compound I-3] |
| 50 to 250 | 50 to 250 | 250 to 1000 | 50 to 250 | 50 to 250 | 1000 to 5000 | CN1CCN(c2ccc(Nc3ncc4c(n3)n3c(cc5ccccc53)c(=O)n4C)cc2)CC1 [Compound I-1] |
| 50 to 250 | 1000 to 5000 | ≥ 5000 | 250 to 1000 | ≥ 5000 | – | COc1cc(N2CCC(O)CC2)ccc1Nc1ncc2c(n1)n1c(cc3ccccc31)c(=O)n2C [Compound I-2] |
